In patent US20100292231A1, “Indazole Compounds for Treating Inflammatory Disorders, Demyelinating Disorders and Cancers” (priority 2007, published 2010):
pEC50: −log10 of the molar value. Like-named read-outs stand apart in the source and are kept apart here.

How the values were obtained:
Experiment in all cases: SelectScreen kinase specificity survey
Format in all cases: biochemical
EPHA2 = target: T1, EPHA2 (Homo sapiens, UniProt P29317); conditions: estimated, abridged dose response curve, read-out: Kinase inhibitory activity EC50
T1 construct: purchased Invitrogen (SelectScreen service)
T1 sequence (P29317 24-976): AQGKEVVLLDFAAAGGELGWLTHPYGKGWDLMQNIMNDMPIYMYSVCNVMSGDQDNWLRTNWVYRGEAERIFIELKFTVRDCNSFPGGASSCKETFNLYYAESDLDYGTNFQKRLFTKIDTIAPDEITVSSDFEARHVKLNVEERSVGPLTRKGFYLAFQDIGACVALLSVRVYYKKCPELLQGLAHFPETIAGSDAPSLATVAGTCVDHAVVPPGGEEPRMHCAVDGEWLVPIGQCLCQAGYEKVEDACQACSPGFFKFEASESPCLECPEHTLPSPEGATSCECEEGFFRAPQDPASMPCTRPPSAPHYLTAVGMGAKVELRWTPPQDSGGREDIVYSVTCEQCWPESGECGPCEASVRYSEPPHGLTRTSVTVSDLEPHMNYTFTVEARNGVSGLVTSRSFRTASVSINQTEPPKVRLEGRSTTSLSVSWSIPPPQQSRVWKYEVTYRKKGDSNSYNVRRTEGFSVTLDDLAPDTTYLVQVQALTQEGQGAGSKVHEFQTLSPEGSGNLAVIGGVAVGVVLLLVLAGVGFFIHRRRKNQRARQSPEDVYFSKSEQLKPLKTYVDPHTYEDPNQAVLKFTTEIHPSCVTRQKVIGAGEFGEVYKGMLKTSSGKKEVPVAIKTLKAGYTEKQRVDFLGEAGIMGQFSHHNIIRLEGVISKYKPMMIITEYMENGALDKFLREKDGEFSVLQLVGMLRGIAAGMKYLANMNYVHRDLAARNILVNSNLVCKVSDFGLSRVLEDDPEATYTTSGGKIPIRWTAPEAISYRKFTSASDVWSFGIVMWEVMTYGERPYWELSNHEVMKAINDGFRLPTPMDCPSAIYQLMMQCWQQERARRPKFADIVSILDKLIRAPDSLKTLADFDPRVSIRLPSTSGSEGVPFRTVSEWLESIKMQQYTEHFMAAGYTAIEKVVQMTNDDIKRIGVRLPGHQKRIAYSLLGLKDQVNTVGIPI
Summary of the method: (§1)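 In a 230-member panel spanning all kinase classes, phosphorylation of kinase-specific substrates at 100 micromolar ATP was read optically. Estimated EC50s came from abridged five-increment titrations fitted to a Hill equation with four parameters.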

ZAP70 = target: T2, ZAP70 (Homo sapiens, UniProt P43403); conditions: estimated, abridged dose response curve, read-out: Kinase inhibitory activity EC50
T2 construct: purchased Invitrogen (SelectScreen)
Summary of the method: as §1

NEK4 = target: T3, NEK4 (Homo sapiens, UniProt P51957); conditions: estimated, abridged dose response curve, read-out: Kinase inhibitory activity EC50
T3 construct: purchased Invitrogen, Inc. (SelectScreen service)
T3 sequence (P51957 whole entry): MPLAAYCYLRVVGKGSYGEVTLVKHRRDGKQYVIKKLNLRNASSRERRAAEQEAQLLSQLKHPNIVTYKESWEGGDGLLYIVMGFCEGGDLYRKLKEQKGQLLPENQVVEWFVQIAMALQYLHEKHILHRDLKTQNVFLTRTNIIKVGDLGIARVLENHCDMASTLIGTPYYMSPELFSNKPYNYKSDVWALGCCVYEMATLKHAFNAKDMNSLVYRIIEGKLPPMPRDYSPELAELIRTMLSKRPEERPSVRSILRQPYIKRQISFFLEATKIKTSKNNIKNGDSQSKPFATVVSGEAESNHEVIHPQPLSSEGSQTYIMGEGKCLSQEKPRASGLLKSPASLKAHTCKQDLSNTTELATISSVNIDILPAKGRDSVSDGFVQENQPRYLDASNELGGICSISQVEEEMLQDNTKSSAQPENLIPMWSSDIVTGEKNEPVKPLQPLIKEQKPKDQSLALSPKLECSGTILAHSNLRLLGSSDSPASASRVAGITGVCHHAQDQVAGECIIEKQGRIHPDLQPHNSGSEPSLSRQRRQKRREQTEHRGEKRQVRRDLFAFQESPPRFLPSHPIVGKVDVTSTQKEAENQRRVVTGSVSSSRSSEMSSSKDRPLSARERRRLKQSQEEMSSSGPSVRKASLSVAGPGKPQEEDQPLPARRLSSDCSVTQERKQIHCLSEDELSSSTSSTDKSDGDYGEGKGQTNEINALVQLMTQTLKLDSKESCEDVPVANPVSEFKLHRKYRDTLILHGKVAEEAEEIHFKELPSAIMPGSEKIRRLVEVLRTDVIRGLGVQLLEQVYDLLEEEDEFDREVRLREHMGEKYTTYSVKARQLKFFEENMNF
Summary of the method: as §1

DYRK4 = target: T4, DYRK4 (Homo sapiens, UniProt Q9NR20)
T4 construct: purchased Invitrogen (SelectScreen platform)
Summary of the method: as §1

NEK1 = target: T5, NEK1 (Homo sapiens, UniProt Q96PY6); conditions: estimated, abridged dose response curve, read-out: Kinase inhibitory activity EC50
T5 construct: purchased Invitrogen, Inc. (SelectScreen service)
Summary of the method: as §1

CLK3 = target: T6, CLK3 (Homo sapiens, UniProt P49761); conditions: estimated, abridged dose response curve, read-out: Kinase inhibitory activity EC50
T6 construct: purchased Invitrogen (SelectScreen platform)
T6 sequence (P49761 whole entry): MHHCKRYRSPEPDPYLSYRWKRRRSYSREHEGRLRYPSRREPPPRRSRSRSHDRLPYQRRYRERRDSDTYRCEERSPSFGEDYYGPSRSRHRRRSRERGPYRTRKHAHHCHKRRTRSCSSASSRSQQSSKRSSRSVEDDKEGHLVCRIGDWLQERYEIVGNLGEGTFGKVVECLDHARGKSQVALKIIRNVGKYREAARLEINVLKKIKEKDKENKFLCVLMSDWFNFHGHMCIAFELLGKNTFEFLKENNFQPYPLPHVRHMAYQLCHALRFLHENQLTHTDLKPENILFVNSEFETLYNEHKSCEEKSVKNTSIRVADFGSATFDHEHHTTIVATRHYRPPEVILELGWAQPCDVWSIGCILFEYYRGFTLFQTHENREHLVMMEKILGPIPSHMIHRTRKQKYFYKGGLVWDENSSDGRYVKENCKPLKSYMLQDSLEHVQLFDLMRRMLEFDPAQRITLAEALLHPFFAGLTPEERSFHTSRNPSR
Summary of the method: as §1

CSNK1E (CK1 epsilon) = target: T7, CSNK1E (CK1 epsilon) (Homo sapiens, UniProt P49674); conditions: estimated, abridged dose response curve, read-out: Kinase inhibitory activity EC50
T7 construct: purchased Invitrogen (SelectScreen platform)
T7 sequence (P49674 whole entry): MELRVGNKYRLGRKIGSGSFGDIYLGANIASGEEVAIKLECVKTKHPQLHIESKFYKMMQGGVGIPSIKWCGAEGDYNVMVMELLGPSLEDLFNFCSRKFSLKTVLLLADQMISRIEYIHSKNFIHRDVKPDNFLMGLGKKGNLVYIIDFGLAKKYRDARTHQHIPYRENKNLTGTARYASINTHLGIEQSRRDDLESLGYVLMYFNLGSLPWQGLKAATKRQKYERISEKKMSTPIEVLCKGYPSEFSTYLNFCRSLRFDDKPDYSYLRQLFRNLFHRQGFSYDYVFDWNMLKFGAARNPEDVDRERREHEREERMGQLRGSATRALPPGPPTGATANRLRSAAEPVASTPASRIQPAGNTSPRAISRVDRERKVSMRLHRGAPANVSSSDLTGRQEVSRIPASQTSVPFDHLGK
Summary of the method: as §1

DYRK3 = target: T8, DYRK3 (Homo sapiens, UniProt O43781); conditions: estimated, abridged dose response curve, read-out: Kinase inhibitory activity EC50
T8 construct: purchased Invitrogen (SelectScreen platform)
T8 sequence (O43781 whole entry): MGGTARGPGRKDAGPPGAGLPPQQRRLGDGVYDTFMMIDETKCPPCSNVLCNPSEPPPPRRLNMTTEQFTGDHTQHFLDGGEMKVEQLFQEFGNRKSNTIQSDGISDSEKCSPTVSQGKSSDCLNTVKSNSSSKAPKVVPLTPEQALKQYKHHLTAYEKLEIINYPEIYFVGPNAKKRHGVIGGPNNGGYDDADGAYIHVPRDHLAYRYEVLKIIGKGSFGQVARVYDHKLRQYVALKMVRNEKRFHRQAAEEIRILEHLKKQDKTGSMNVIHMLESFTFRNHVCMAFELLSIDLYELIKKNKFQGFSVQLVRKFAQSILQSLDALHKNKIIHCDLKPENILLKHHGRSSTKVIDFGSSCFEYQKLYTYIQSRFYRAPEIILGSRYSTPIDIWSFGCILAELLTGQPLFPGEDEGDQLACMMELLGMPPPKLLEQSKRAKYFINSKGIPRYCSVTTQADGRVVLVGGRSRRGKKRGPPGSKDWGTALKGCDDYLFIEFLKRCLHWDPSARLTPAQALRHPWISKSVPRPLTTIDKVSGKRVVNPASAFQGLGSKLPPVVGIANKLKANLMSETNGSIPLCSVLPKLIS
Summary of the method: as §1

RET V804L = target: T9, RET V804L (Homo sapiens, UniProt P07949, V804L); conditions: estimated, abridged dose response curve, read-out: Kinase inhibitory activity EC50
T9 construct: purchased Invitrogen (SelectScreen)
T9 sequence (P07949 29-1114 V804L): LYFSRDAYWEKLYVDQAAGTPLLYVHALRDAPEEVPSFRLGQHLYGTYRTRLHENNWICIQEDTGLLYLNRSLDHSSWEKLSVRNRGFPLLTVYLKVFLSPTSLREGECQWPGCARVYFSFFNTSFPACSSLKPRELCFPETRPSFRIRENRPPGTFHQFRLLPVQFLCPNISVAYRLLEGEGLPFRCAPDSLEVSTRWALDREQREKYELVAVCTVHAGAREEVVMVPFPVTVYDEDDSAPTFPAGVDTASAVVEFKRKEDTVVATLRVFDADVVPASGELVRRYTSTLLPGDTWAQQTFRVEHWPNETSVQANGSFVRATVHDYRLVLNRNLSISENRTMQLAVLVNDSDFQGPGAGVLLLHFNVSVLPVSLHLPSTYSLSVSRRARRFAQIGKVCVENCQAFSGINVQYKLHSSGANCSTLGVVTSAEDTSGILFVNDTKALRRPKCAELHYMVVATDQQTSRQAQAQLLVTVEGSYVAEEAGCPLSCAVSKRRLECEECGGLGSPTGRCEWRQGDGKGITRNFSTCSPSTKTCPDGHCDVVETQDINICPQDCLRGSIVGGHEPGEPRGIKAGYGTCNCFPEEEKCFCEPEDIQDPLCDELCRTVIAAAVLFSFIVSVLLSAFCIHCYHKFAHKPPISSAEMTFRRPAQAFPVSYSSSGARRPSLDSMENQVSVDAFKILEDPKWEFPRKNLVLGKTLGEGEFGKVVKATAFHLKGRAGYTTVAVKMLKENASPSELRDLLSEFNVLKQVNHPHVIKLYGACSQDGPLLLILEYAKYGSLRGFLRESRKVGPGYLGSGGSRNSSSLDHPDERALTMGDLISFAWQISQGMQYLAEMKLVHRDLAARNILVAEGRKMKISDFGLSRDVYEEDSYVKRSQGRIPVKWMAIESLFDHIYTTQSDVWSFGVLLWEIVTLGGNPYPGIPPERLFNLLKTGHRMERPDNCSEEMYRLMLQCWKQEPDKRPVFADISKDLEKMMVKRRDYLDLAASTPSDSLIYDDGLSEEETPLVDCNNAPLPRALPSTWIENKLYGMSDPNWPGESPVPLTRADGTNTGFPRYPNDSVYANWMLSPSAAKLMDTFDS
Summary of the method: as §1

CSK = target: T10, CSK (Homo sapiens, UniProt P41240); conditions: estimated, abridged dose response curve, read-out: Kinase inhibitory activity EC50
T10 construct: purchased Invitrogen (SelectScreen service)
Summary of the method: as §1

FLT3 = target: T11, FLT3 (Homo sapiens, UniProt P36888); conditions: estimated, abridged dose response curve, read-out: Kinase inhibitory activity EC50
T11 construct: purchased Invitrogen (SelectScreen platform)
T11 sequence (P36888 27-993): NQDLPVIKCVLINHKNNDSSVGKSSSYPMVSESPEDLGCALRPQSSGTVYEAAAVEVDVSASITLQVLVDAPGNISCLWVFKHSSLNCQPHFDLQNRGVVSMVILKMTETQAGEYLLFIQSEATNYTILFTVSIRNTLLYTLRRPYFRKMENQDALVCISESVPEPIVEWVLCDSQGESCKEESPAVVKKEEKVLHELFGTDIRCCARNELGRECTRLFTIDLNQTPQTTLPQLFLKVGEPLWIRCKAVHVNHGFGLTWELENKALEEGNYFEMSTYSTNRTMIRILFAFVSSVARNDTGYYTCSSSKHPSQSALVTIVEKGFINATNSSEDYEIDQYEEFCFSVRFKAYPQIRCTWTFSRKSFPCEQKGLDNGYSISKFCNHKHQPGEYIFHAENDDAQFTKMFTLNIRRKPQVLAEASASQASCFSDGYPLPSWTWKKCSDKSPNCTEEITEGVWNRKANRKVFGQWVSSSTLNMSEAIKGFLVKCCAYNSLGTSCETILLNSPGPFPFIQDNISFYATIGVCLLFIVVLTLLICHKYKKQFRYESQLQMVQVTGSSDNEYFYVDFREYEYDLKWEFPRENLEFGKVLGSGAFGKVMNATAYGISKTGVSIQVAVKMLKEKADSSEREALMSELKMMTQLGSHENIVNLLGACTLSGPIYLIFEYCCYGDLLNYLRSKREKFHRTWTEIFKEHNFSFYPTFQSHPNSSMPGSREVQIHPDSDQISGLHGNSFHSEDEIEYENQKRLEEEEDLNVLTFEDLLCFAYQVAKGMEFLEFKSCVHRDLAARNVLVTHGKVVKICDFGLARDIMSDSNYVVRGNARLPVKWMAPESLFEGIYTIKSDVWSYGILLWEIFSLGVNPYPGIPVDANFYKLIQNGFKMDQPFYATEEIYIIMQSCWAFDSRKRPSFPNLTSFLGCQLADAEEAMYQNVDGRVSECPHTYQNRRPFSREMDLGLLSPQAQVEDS
Summary of the method: as §1

EPHB2 = target: T12, EPHB2 (Homo sapiens, UniProt P29323); conditions: estimated, abridged dose response curve, read-out: Kinase inhibitory activity EC50
T12 construct: purchased Invitrogen (SelectScreen service)
Summary of the method: as §1

FRAP1 (mTOR) = target: T13, FRAP1 (mTOR) (Homo sapiens, UniProt P42345); conditions: estimated, abridged dose response curve, read-out: Kinase inhibitory activity EC50
T13 construct: purchased Invitrogen, Inc. (SelectScreen platform)
Summary of the method: as §1

CAMK2D (CaMKII delta) = target: T14, CAMK2D (CaMKII delta) (Homo sapiens, UniProt Q13557); conditions: estimated, abridged dose response curve, read-out: Kinase inhibitory activity EC50
T14 construct: purchased Invitrogen, Inc. (SelectScreen platform)
Summary of the method: as §1

ADRBK1 (BARK1, GRK2) = target: T15, ADRBK1 (BARK1, GRK2) (Homo sapiens, UniProt P25098)
T15 construct: purchased Invitrogen (SelectScreen platform)
T15 sequence (P25098 whole entry): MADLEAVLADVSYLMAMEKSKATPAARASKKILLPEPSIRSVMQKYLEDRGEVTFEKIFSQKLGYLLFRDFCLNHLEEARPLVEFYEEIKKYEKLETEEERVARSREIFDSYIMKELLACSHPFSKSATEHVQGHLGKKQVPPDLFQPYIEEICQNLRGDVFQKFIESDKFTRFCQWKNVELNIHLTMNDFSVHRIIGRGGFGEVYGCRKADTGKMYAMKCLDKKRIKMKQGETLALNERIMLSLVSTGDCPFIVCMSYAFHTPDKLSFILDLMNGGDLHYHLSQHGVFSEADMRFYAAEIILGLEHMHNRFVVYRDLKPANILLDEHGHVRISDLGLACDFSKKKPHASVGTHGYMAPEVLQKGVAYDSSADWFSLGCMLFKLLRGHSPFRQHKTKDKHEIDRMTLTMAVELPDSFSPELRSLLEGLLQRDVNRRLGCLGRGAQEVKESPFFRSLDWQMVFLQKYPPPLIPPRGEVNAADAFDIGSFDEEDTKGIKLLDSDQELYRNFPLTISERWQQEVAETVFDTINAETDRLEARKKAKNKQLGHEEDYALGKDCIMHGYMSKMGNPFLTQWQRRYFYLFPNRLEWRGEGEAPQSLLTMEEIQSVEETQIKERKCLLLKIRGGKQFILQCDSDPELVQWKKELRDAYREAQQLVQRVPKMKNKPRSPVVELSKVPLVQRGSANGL
Summary of the method: as §1

pEC50 (DYRK4; DYRK4, estimated, abridged dose response curve, read-out: Kinase inhibitory activity EC50)	pEC50 (ADRBK1 (BARK1, GRK2); ADRBK1 (BARK1, GRK2), estimated, abridged dose response curve, read-out: Kinase inhibitory activity EC50)	Structure (SMILES)	pEC50 (EPHA2)	pEC50 (ZAP70)	pEC50 (NEK4)	pEC50 (NEK1)	pEC50 (CLK3)	pEC50 (CSNK1E (CK1 epsilon))	pEC50 (DYRK3)	pEC50 (RET V804L)	pEC50 (CSK)	pEC50 (FLT3)	pEC50 (EPHB2)	pEC50 (FRAP1 (mTOR))	pEC50 (CAMK2D (CaMKII delta))	pEC50 (DYRK4)	pEC50 (ADRBK1 (BARK1, GRK2))
< 5.30	< 5.30	CN(C)CCCNc1ccc2ncn3c4ccc5[nH]ncc5c4c(=O)c1c23 [Compound (IV)]	< 5.30	< 5.30	< 5.30	< 5.30	< 5.30	< 5.30	6.42	6.06	< 5.30	8.10	< 5.30	< 5.30	6.66	–	–
–	–	CCN(CC)CCNc1ccc2ncn3c4ccc(O)cc4c(=O)c1c23 [Symadex, 5-(2-(diethylamino)ethylamino)-8-hydroxy-6H-imidazo[4,5,1-de]acridin-6-one, reference compound]	< 5.30	< 5.30	< 5.30	5.47	< 5.30	5.96	6.21	6.13	< 5.30	7.82	< 5.30	< 5.30	5.69	< 5.30	< 5.30
